Patent US20210269451A1, “PYRIDINYL HETEROCYCLYL COMPOUNDS FOR THE TREATMENT OF AUTOIMMUNE DISEASE” (Hoffmann-La Roche Inc., priority 2018, published 2021)

What follows are compounds tested against T1, human TLR7 (Homo sapiens, UniProt Q9NYK1) (assay: HEK293-Blue-hTLR-7 cells assay). Details: HEK293-Blue-hTLR7 cells, R848 stimulation, 20 hrs, SEAP reporter; read-out: HEK/hTLR7 IC50.
T1 construct: host or cells: HEK293-Blue-hTLR-7 (HEK293)
T1 sequence (Q9NYK1 27-1049): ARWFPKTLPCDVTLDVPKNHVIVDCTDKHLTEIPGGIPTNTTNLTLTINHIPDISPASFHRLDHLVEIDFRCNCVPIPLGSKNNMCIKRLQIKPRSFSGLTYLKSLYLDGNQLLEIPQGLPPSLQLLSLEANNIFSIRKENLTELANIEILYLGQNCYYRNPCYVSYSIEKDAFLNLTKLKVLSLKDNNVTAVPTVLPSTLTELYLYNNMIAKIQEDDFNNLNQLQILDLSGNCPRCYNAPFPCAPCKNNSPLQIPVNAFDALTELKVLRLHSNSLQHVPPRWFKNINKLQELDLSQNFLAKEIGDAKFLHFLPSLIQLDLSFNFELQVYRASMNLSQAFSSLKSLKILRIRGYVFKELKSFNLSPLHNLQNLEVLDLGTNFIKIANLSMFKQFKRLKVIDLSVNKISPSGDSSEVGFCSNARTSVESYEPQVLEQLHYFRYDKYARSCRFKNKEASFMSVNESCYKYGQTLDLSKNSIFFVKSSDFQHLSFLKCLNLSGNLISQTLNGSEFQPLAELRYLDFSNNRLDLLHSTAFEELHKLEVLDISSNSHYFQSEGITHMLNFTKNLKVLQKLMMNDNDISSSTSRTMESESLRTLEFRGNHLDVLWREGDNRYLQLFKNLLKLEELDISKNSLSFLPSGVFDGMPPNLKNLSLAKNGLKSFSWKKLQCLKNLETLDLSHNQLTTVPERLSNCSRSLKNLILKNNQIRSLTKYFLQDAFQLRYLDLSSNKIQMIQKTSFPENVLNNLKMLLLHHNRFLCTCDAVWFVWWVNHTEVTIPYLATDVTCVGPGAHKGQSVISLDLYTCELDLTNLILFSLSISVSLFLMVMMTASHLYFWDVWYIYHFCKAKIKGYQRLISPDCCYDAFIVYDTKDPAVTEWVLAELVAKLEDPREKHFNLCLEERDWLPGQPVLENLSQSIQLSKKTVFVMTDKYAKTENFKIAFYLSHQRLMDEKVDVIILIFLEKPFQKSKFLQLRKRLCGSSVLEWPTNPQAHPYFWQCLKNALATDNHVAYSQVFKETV
Format: cell-based
Protocol: The following tests were carried out in order to determine the activity of the compounds of formula (I) and (Ia) in HEK293-Blue-hTLR-7/8/9 cells assay.
HEK293-Blue-hTLR-7 cells assay:
A stable HEK293-Blue-hTLR-7 cell line was purchased from InvivoGen (Cat. #: hkb-htlr7, San Diego, Calif., USA). These cells were originally designed for studying the stimulation of human TLR7 by monitoring the activation of NE-κB. A SEAP (secreted embryonic alkaline phosphatase) reporter gene was placed under the control of the IFN-β minimal promoter fused to five NE-κB and AP-1-binding sites. The SEAP was induced by activating NE-κB and AP-1 via stimulating HEK-Blue hTLR7 cells with TLR7 ligands. Therefore the reporter expression was declined by TLR7 antagonist under the stimulation of a ligand, such as R848 (Resiquimod), for incubation of 20 hrs. The cell culture supernatant SEAP reporter activity was determined using QUANTI-Blue™ kit (Cat. #: rep-qbl, Invivogen, San Diego, Ca, USA) at a wavelength of 640 nm, a detection medium that turns purple or blue in the presence of alkaline phosphatase.
HEK293-Blue-hTLR7 cells were incubated at a density of 250,000-450,000 cells/mL in a volume of 170 μL in a 96-well plate in Dulbecco's Modified Eagle's medium (DMEM) containing 4.5 g/L glucose, 50 U/mL penicillin, […], […], 2 mM L-glutamine, 10% (v/v) heat-inactivated fetal bovine serum with addition of 20 μL test compound in a serial dilution in the presence of final DMSO at 1% and 10 μL of 20 uM R848 in above DMEM, perform incubation under 37° C. in a CO2 incubator for 20 hrs. Then 20 μL of the supernatant from each well was incubated with 180 μL Quanti-blue substrate solution at 37° C. for 2 hrs and the absorbance was read at 620˜655 nm using a spectrophotometer. The signalling pathway that TLR7 activation leads to downstream NE-κB activation has been widely accepted, and therefore similar reporter assay was modified for evaluating TLR7 antagonist.
An IC50 of 0.02 µM was found for Cc1cc(N2CC3(CN(C[C@H]4CN(c5ccc(C#N)c6ncccc56)C[C@@H](C)O4)C3)C2)cc(C(C)O)n1 (stereo partly drawn) [Example 44, 5-[(2S,6R)-2-[[2-[2-(1-hydroxyethyl)-6-methyl-4-pyridyl]-2,6-diazaspiro[3.3]heptan-6-yl]methyl]-6-methyl-morpholin-4-yl]quinoline-8-carbonitrile] in this work.
An IC50 of 0.039 µM was found for C[C@@H]1CN(c2ccc(C#N)c3ncccc23)C[C@H](CN2CCN(c3cc(N)nc(CO)c3)CC2)O1 [Example 45, 5-[(2S,6R)-2-[[4-[2-amino-6-(hydroxymethyl)-4-pyridyl]piperazin-1-yl]methyl]-6-methyl-morpholin-4-yl]quinoline-8-carbonitrile] in this work.
An IC50 of 0.032 µM was found for CC(O)c1cc(N2CC3(CN(C[C@H]4CN(c5ccc(C#N)c6ncccc56)C[C@@H](C)O4)C3)C2)ccn1 (stereo partly drawn) [Example 46, 5-[(2S,6R)-2-[[2-[2-(1-hydroxyethyl)-4-pyridyl]-2,6-diazaspiro[3.3]heptan-6-yl]methyl]-6-methyl-morpholin-4-yl]quinoline-8-carbonitrile] in this work.
An IC50 of 0.055 µM was found for C[C@@H]1CN(c2ccc(C#N)c3ncccc23)C[C@H](CN2CC3(C2)CN(c2ccnc(C(C)(C)O)c2)C3)O1 [Example 48, 5-[(2S,6R)-2[[2-[2-(1-hydroxy-1-methyl-ethyl)-4-pyridyl]-2,6-diazaspiro[3.3]heptan-6-yl]methyl]-6-methyl-morpholin-4-yl]quinoline-8-carbonitrile] in this work.
An IC50 of 0.013 µM was found for C[C@@H]1CN(c2ccc(C#N)c3ncccc23)C[C@H](CN2CC3(C2)CN(c2ccnc(C4CC4)c2)C3)O1 [Example 49, 5-[(2S,6R)-2[[2-(2-cyclopropyl-4-pyridyl)-2,6-diazaspiro[3.3]heptan-6-yl]methyl]-6-methyl-morpholin-4-yl]quinoline-8-carbonitrile] in this work.
An IC50 of 0.01 µM was found for Cc1cc(N2CCN(C[C@H]3CN(c4ccc(C#N)c5ncccc45)C[C@@H](C)O3)CC2)cc(CO)n1 [Example 50] in this work.
An IC50 of less than 0.003 µM was found for C[C@@H]1CN(c2ccc(C#N)c3ncccc23)C[C@H](CN2CC3(C2)CN(c2ccnc(CO)c2)CCO3)O1 [Example 51] in this work.
